From BindingDB's records for doi:10.7270/Q24T6GTZ (Burnham Center For Chemical Genomics, 2010) come the findings set out here.

The assay concerns the target Kappa-type opioid receptor (Homo sapiens, UniProt P41145). In words: kappa opioid receptor activation potency – imaging, image-based, SAR follow-up (AID 2359).

Chain of Kappa-type opioid receptor (P41145 whole entry): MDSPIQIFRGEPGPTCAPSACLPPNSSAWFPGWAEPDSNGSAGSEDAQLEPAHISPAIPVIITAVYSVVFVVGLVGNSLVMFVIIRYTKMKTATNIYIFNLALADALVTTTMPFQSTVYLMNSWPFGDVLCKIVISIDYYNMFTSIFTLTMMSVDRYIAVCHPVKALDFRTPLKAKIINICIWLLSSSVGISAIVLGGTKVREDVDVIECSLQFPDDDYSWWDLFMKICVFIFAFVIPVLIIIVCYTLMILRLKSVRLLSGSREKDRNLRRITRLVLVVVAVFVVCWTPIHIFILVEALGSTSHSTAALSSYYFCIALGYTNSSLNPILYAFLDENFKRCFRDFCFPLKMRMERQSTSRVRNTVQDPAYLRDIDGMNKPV

One may read the EC50 as the concentration that produces a half-maximal response. `Oc1ccc(CN=Nc2ccnc3cc(Cl)ccc23)cc1O` [(4Z)-4-[[2-(7-chloroquinolin-4-yl)hydrazinyl]methylidene]-2-hydroxycyclohexa-2,5-dien-1-one] came in with an EC50 of more than 32 µM. The figure for `CCC(N=Nc1ccnc2cc(Cl)ccc12)c1ccc(O)cc1` (configuration not stated) [4-[1-[2-(7-chloroquinolin-4-yl)hydrazinyl]propylidene]cyclohexa-2,5-dien-1-one] is more than 32 µM.
